Columns and labels:
A2780cisR cells = test: MTT cytotoxicity assay, cDDP-resistant A2780cisR cells; format: cell-based, Human; details: 72-h exposure
Method: (§1) Human ovarian carcinoma (A2780) and cDDP-resistant A2780 (A2780cisR) cells were cultured in RPMI 1640 with 10% FBS and 100 units penicillin/streptomycin. HeLa cells, adenocarcinomic human alveolar basal epithelial cells (A549) and cDDP-resistant A549 (A549cisR) cells were cultured in DMEM containing 10% FBS and 100 units penicillin/streptomycin. All cells were incubated at 37° C. under 5% CO2. The cDDP-resistant cells, A549cisR and A2780cisR were generated from their parental A549 or A2780 cells. Briefly, A549 or A2780 cells were cultured in complete medium containing 0.5 μg/mL cisplatin at the beginning for the first screening, and the remaining cells were cultured in complete medium containing 1.0 μg/mL cisplatin for at least 4 weeks until the resistance was obtained. An MTT assay was used to evaluate the cytotoxicity of cDDP and the subject heterodinuclear Pt—Ru compounds Ruthplatin-1, 2, 3 and 4 against A2780, A2780cisR, A549, A549cisR and HeLa. The results of this assay are depicted in Table 1 of FIG. 9. […] The results of this assay are depicted in Table 2 of FIG. 10. […] After incubating for 72 h, the original medium was removed and 0.2 mL fresh medium containing 1 mg/mL MTT was added to each well. After staining for 4 h, the medium was replaced by DMSO. The absorbance was tested at 570 and 630 nm. A control was set as medium without compound. […]

A549 cells = test: MTT cytotoxicity assay, A549 cells; format: cell-based, human; details: 72-h exposure
Method: as §1

A549cisR cells = test: MTT cytotoxicity assay, cDDP-resistant A549cisR cells; format: cell-based, human; details: 72-h exposure
Method: as §1

HeLa cells = test: MTT cytotoxicity assay, HeLa cells; format: cell-based; details: 72-h exposure
Method: as §1

[1] = system: A2780, A2780cisR, A549, A549cisR and HeLa; test: MTT cytotoxicity assay, all cell lines tested; format: cell-based; details: each of the cell lines, 72-h exposure
Method: Human ovarian carcinoma (A2780) and cDDP-resistant A2780 (A2780cisR) cells were cultured in RPMI 1640 with 10% FBS and 100 units penicillin/streptomycin. HeLa cells, adenocarcinomic human alveolar basal epithelial cells (A549) and cDDP-resistant A549 (A549cisR) cells were cultured in DMEM containing 10% FBS and 100 units penicillin/streptomycin. All cells were incubated at 37° C. under 5% CO2. The cDDP-resistant cells, A549cisR and A2780cisR were generated from their parental A549 or A2780 cells. Briefly, A549 or A2780 cells were cultured in complete medium containing 0.5 μg/mL cisplatin at the beginning for the first screening, and the remaining cells were cultured in complete medium containing 1.0 μg/mL cisplatin for at least 4 weeks until the resistance was obtained.
An MTT assay was used to evaluate the cytotoxicity of cDDP and the subject heterodinuclear Pt—Ru compounds Ruthplatin-1, 2, 3 and 4 against A2780, A2780cisR, A549, A549cisR and HeLa. The results of this assay are depicted in Table 1 of FIG. 9. […]
For each of these assays, cells were seeded in 96-well plates at a density of 1,500 cells per well (for A2780, A549 and HeLa) or 2,500 cells per well (for A2780cisR and A549cisR) and were incubated till their confluency reached about 30%. […] The absorbance was tested at 570 and 630 nm. […]

| SMILES | RF (resistant factor) = IC50 in A2780cisR/IC50 in A2780 (A2780cisR cells) | cytotoxicity in A549 cells (compared with cisplatin) (A549 cells) | RF (resistant factor) = IC50 in A549cisR/IC50 in A549, compared with cisplatin (A549cisR cells; A549/A549cisR cells) | cytotoxicity in A549cisR cells (compared with cisplatin) (A549cisR cells; A549cisR cells) | activity against the proliferation of HeLa cells (HeLa cells) | IC50 values compared with cDDP [1] |
| --- | --- | --- | --- | --- | --- | --- |
| Cc1ccc(C(C)C)cc1.[NH3+][Pt-2]([NH3+])([OH])([Cl])([Cl])[O]C(=O)CCc1ccc[n+]([Ru-]2[O]C(=O)C(=O)[O]2)c1 [Ruthplatin-4] | 2.1 | significantly increased cytotoxicity | decreases | significantly increased cytotoxicity | very active | significantly lower than that of cDDP |
| [NH2][Pt]([NH2])([Cl])[Cl] [cDDP, Cisplatin, reference compound] | 17.4 |  |  |  |  |  |
